These results are taken from patent publication US7495022B2, “α,β-unsaturated hydroxamic acid derivatives and their use as histone deacetylase inhibitors” (SK Chemicals Co., Ltd., priority 2002, dated 2009).

What all share (type): cell-based
Assay [1] concerns A-549, lung cancer. As to the kind of experiment: In vitro cytotoxicity, MTT assay, A-549. To be noted: A549, 96 h, A-549 human lung cancer cells, 4 days incubation. Here is the method:
(§1) Three human cancer cell lines (A-549, lung cancer; SK-BR-3, breast cancer; MKN-45, stomach cancer) were tested in MTT assay. These cell lines were grown in RPMI 1640 medium supplemented with penicillin-streptomycin (100 units/mL) and 10% heat-inactivated fetal bovine serum under standard culture condition (20% O2 and 5% CO2, 37° C.). Single-cell suspensions were prepared by trypsinization and pipette disaggregation. The number of cells for each cell line plated in 96-well microtiter plates was determined from the growth curve obtained in MTT assay. Test compounds were diluted from stock solution in DMSO into fresh medium to a 10× concentration. Cells were inoculated into each well in 180 μL of medium and eight different concentrations of 20 μL of test compounds were added to each well. The plates were then incubated for 4 days at 37° C., 5% CO2. After 4 days of culture, 0.1 mg (20 μL of 5 mg/mL) of MTT was added to each well. The plates were then incubated at 37° C. for 4 hours. After the plates were centrifuged at 1,000 rpm for 10 minutes, the supernatant was aspirated. 150 μL of DMSO was added to each well to solubilize formazan crystals. The plates were read immediately at 550 nm on Elisa reader (Dynatech, MR 5000).

Assay [2] deals with SK-BR-3, breast cancer. Nature of the assay: In vitro cytotoxicity, MTT assay, SK-BR-3. As to conditions: 96 h, SK-BR-3 human breast cancer cells, 4 days incubation. How it is done: as §1
Assay [3] deals with MKN-45, stomach cancer. As to the kind of experiment: In vitro cytotoxicity, MTT assay, MKN-45. As to conditions: 96 h, MKN-45 human stomach cancer cells, 4 days incubation. How it is done:
as §1
(Tetrazolium dyes change colour on reduction, which living cells bring about.)

Turning to `CN(C)c1ccc(C(=O)NCc2ccc(C=CC(=O)NO)cc2)cc1` [Example 6, 4-Dimethylamino-N-[4-(2-hydroxycarbamoylvinyl)benzyl]benzamide], the IC50 – broadly, the concentration needed to halve the response being measured – was 0.48 µM in assay [1], 0.16 µM in assay [2] and 0.83 µM in assay [3].
The like results for `O=C(C=Cc1ccc(CNC(=O)c2ccc(N3CCN(Cc4ccccn4)CC3)cc2)cc1)NO` [Example 2, N-[4-(2-Hydroxycarbamoylvinyl)benzyl]-4-(4-pyridin-2-ylmethylpiperazin-1-yl)benzamide] were, in that order, 1.65 µM, 0.27 µM and 2.94 µM.
The like results for `O=C(C=Cc1ccc(CNC(=O)c2cccnc2)cc1)NO` [Example 7, N-[4-(2-Hydroxycarbamoylvinyl)benzyl]nicotinamide] were, in that order, 2.89 µM, 1.28 µM and 4.98 µM.
In the same order, the values of `O=C(C=Cc1ccc(CNC(=O)c2ccc(N3CCN(Cc4ccncc4)CC3)cc2)cc1)NO` [Example 3, N-[4-(2-Hydroxycarbamoylvinyl)benzyl]-4-(4-pyridin-4-ylmethylpiperazin-1-yl)benzamide] are 3.02 µM, 1.72 µM and 56.1 µM.
With `O=C(C=Cc1ccc(CS(=O)(=O)Nc2cccnc2)cc1)NO` [Example 9, N-Hydroxy-3-[4-(pyridin-3-ylsulfamoylmethyl)phenyl]acrylamide], the IC50 in assay [1] was 37 µM; in assay [2] it was 22.9 µM; in assay [3], 62 µM.
In the same order, the values of `O=C(C=Cc1ccc(CS(=O)(=O)c2ccccc2)cc1)NO` [Example 10, 3-[4-(Benzenesulfonylmethyl)phenyl]-N-hydroxyacrylamide] are 11.1 µM, 4.57 µM and 8.34 µM.
The like results for `O=C(C=Cc1ccc(CNC(=O)OCc2cccnc2)cc1)NO` [Example 8, [4-(2-Hydroxycarbamoylvinyl)benzyl]carbamic acid pyridin-3-ylmethyl ester] were, in that order, 2.61 µM, 1.12 µM and 3.34 µM.
In the same order, the values of `O=C(C=Cc1ccc(CNC(=O)c2ccccn2)cc1)NO` [Example 4, N-[4-(2-Hydroxycarbamoylvinyl)benzyl]picolinamide] are 2.23 µM, 0.87 µM and 3.64 µM.
On to `O=C(C=Cc1ccc(CNC(=O)c2ccc(N3CCCC3)cc2)cc1)NO` [Example 5, N-[4-(2-Hydroxycarbamoylvinyl)benzyl]-4-pyrrolidin-1-ylbenzamide], for which the results for the IC50 in assay [1], in assay [2] and in assay [3] were 0.35 µM, 0.11 µM and 0.8 µM, respectively.
For the compound `O=C(C=Cc1ccc(CNC(=O)c2ccc(N3CCN(Cc4cccnc4)CC3)cc2)cc1)NO` [Example 1, N-[4-(2-Hydroxycarbamoylvinyl)benzyl]-4-(4-pyridin-3-ylmethylpiperazin-1-yl)benzamide], the IC50 in assay [1] came out at 12 µM; in assay [2], 3.19 µM; in assay [3], 38.6 µM.
